Source: PubChem BioAssay AID1918948 (Molecular Pharmacology Branch, DTP, NCI, 2023)
pIC50: −log10 of the molar value. “And” between values parts separate entries of the source, which are not always exact repeats. Equal values may be shown once.

System: K-562 leukemia growth, % test/control
Assay: Anticancer human tumor K-562 cell line growth inhibition;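 note: spheroids exposed to compounds for 7 days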;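 for viability, T/C: 100% = DMSO vehicle wells and lower values mean fewer viable cells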
Conditions: spheroids with HUVEC and MSC; for viability, T/C: stronger effect = lower value
Description: Multicellular complex tumor spheroid response to LSD1 Inhibitor Iadademstat in combination with a variety of drugs and investigational agents in selected tumor cell lines
The current study was undertaken to assess response to LSD1 inhibitors in combination with standard-of-care drugs and investigational agents in solid tumor complex spheroid models as well as in the K-562 leukemia. Complex spheroids include a stromal component modeled by human endothelial cells (HUVEC) and fibroblasts modeled by human mesenchymal stem cells (MSCs). The concentration ranges selected for each drug and investigational agent were based upon clinically achievable concentrations if the clinical Cmax of the agent was known.
Compounds. The drugs and investigational agents used in this study are listed on Table 1. All of the agents used, including staurosporine (NSC755774) and gemcitabine (NSC613327), were obtained from the Developmental Therapeutics Program, NCI. FDA-approved anticancer drugs are available from the NCI at http://dtp.nci.nih.gov/branches/dscb/oncology_drugset_explanation.html. Drugs and investigational agents were >95% pure by proton nuclear magnetic resonance (NMR) and liquid chromatography/mass spectrometry (LC/MS). Stock solutions were prepared at 400x in DMSO, stored at -70 degrees C, and diluted in fresh medium prior to their use. The final concentration of DMSO in cell culture wells never exceeded 0.25% (v/v). The FDA-approved anticancer drug set is available from the Developmental Therapeutics Program at https://dtp.cancer.gov/organization/dscb/obtaining/available_plates.htm. All drugs and investigational agents were tested over a range starting from a high concentration at or near the clinical Cmax and decreasing in half-log increments. If the clinical Cmax for an agent had not been determined, the highest concentration tested was 10 microM.
Cell Lines. The patient-derived cancer cell (PDC) lines: 292921-168-R-J2-PDC, K24384-001-R-PDC, and 521955-158-R2-J5-PDC pancreatic carcinomas, 556581-035-R-J1 ovarian carcinoma, 324938-238-R-J1-PDC, 855422-203-R-J1-PDC and 883617-216-R-J1-PDC urothelial bladder carcinomas, 743489-274-T-PDC renal cell carcinoma, 138582-R-J1 Merkel cell tumor, K60290-347-R-J1 and K57222-313-R-J1-PDC glioblastomas, 653999-131-R-J2-PDC, LG0703-F948-PDC, and 349418-098-R-PDC non-small cell lung carcinomas, 885512-296-R-J2-PDC, 171881-019-R-J1-PDC breast carcinomas and 186277-243-T-J2-PDC and 233499-124-R-J2-PDC colon carcinomas were obtained from the NCI Patient-Derived Models Repository (PDMR, https://pdmr.cancer.gov). The established cell lines NCI/ADR-RES (RRID:CVCL_14520 and OVCAR-5 (RRID:CVCL_1628) ovarian carcinomas, 786-O (RRID:CVCL_1051) and A498 (RRID:CVCL_A498) renal cell carcinoma, NCI-H211 (ATCC, cat. CRL-5824; RRID:CVCL_1529), NCI-H196 (ATCC, cat. CRL-5823, RRID:CVCL_1509), SW 1271 (ATCC, cat. CRL-2177, RRID:CVCL_1716) and NCI-H1876 (ATCC, cat. CRL-5902, RRID:CVCL_1503) small cell lung carcinomas, MDA-MB-231 (RRID:CVCL_0062) and MDA-MB-468 (RRID:CVCL_0419)breast carcinomas (10-12). Pooled donor human umbilical vein endothelial cells (HUVEC, Lonza, cat. CC-2519) and human mesenchymal stem cells (hMSC, Lonza, cat. PT-2501) were purchased from Lonza (Walkersville, MD).
Cell Culture. All cells were maintained in an incubator at 37 degrees C and 5% CO2 with 95% humidity. The PDC lines were cultured according to standard operating procedures established by the NCI PDMR (https://pdmr.cancer.gov). Briefly all PDCs were thawed and cultured in Matrigel-coated flasks prepared with a working solution of 1X Ham's F-12 nutrient mix, without supplementation (Invitrogen, Waltham, MA, cat. 11765054), 100 U/mL penicillin-streptomycin (Invitrogen, cat. 15140122), and 2.5% Matrigel (Corning Inc., Corning, NY, cat. 354248) for the first three passages. […]

pIC50 (curve of compound)	SMILES	viability, T/C (compound 0.0316 µM)	viability, T/C (compound 0.1 µM)	viability, T/C (compound 0.316 µM)	viability, T/C (compound 1 µM)	viability, T/C (compound 3.16 µM)	viability, T/C (compound 10 µM)	viability, T/C (compound 0.00949 µM)	viability, T/C (compound 0.03 µM)	viability, T/C (compound 0.0949 µM)	viability, T/C (compound 0.3 µM)	other results
5.08 and 5.10	COc1ccc([C@@H](O)c2cc(-c3ncnc4cc(N5CCOCC5)ccc34)c(F)cc2Cl)nn1	100% and 102%	104% and 98.7%	97% and 95.4%	96.4% and 97%	104% and 99.9%	40% and 38.6%	–	–	–	–	–
< 7.00	Cn1ncnc1C1c2n[nH]c(=O)c3cc(F)cc(c23)NC1c1ccc(F)cc1 (stereo not given)	99.4% and 102%	96.7% and 97.5%	–	–	–	–	–	–	–	–	viability, T/C (compound 0.000316 µM): 104% and 106%; viability, T/C (compound 0.001 µM): 95.2% and 105%; viability, T/C (compound 0.00316 µM): 98.8% and 96.9%; viability, T/C (compound 0.01 µM): 98.7% and 102%
–	NC1CC1c1ccc(-c2cccc(O)c2)cc1 (stereo not given)	–	109%	104% [middle of 25 runs]	99.9% [middle of 25 runs]	100% [middle of 24 runs]	98.8% [middle of 25 runs]	–	–	–	–	pIC50 (compound alone, run of 02/01/2022): < 5.00
–	NC1CCC(NC2CC2c2ccccc2)CC1 (stereo not given)	–	99% [middle of 24 runs]	100% and 101% and 98.9%	103% [middle of 25 runs]	103% [middle of 25 runs]	100% [middle of 23 runs]	–	–	–	–	pIC50 (compound alone, run of 01/18/2022): < 5.00
7.32 and > 8.02	NS(=O)(=O)OCC1CC(n2ccc3c(NC4CCc5ccccc54)ncnc32)CC1O (stereo not given)	–	–	–	–	–	–	65.6% and 51.5%	47% and 34.4%	49.3% and 36.1%	34.9% and 20.1%	viability, T/C (compound 0.949 µM): 18% and 13.5%; viability, T/C (compound 3 µM): 11.5% and 4.24%
6.35 and 6.73	Nc1ccccc1NC(=O)c1ccc(CNC(=O)OCc2cccnc2)cc1	–	–	–	–	–	–	107% and 112%	101% and 110%	103% and 106%	74.6% and 11.2%	viability, T/C (compound 0.949 µM): 4.47% and 0.45%; viability, T/C (compound 3 µM): 0.26% and 0.16%
–	Nc1ccn(C2OC(CO)C(O)C2(F)F)c(=O)n1 (stereo not given)	–	–	–	–	–	–	14.6% and 51.5%	13.6% and 21%	15.1% and 19.3%	13.9% and 16.9%	viability, T/C (compound 0.000949 µM): 45.4% and 98.6%; viability, T/C (compound 0.003 µM): 18.2% and 91.7%
< 6.00	Nc1ncn(C2CC(O)C(CO)O2)c(=O)n1 (stereo not given)	88.5% and 96.1%	79.7% and 89.2%	72.3% and 74.6%	67.1% and 75.9%	–	–	–	–	–	–	viability, T/C (compound 0.00316 µM): 94.7% and 99.7%; viability, T/C (compound 0.01 µM): 93.9% and 96.9%
6.73 and 6.97	Nc1ncn(C2CC(O)C(CO)S2)c(=O)n1 (stereo not given)	–	–	–	–	–	–	109% and 105%	94.4% and 87.5%	67.2% and 53.8%	37.7% and 19.5%	viability, T/C (compound 0.000949 µM): 111% and 100%; viability, T/C (compound 0.003 µM): 109% and 106%
6.32 and 6.63	O=C(C=Cc1cccc(S(=O)(=O)Nc2ccccc2)c1)NO	–	–	–	–	–	–	100% and 96%	98.5% and 97.4%	101% and 98.3%	83.7% and 5.37%	viability, T/C (compound 0.949 µM): 2.11% and 0.8%
7.12 and 6.91	O=C(C=Cn1cnc(-c2cc(C(F)(F)F)cc(C(F)(F)F)c2)n1)NNc1cnccn1	92.1% and 101%	37.1% and 58.4%	4.12% and 9.78%	1.22% and 1.15%	–	–	–	–	–	–	viability, T/C (compound 0.00316 µM): 102% and 101%; viability, T/C (compound 0.01 µM): 103%
5.02 and < 5.00	O=C(c1cc(Cc2n[nH]c(=O)c3ccccc23)ccc1F)N1CCN(C(=O)C2CC2)CC1	97% and 101%	99.8% and 101%	99% and 103%	97.1% and 101%	88.5% and 94.2%	48.1% and 50.1%	–	–	–	–	–
